The record followed here is PMC6199744, “Development of Chemical Proteomics for the Folateome and Analysis of the Kinetoplastid Folateome” (ACS Infectious Diseases, 2018).

Where two headings read alike, the source gives them in different places.

What all share (type): binding
Assay [1] addresses T1, HeLa cell extract proteins (Homo sapiens, UniProt Q969S8).
T1 construct: endogenous in cells; host or cells: HeLa cell extract
T1 sequence (Q969S8 1-669): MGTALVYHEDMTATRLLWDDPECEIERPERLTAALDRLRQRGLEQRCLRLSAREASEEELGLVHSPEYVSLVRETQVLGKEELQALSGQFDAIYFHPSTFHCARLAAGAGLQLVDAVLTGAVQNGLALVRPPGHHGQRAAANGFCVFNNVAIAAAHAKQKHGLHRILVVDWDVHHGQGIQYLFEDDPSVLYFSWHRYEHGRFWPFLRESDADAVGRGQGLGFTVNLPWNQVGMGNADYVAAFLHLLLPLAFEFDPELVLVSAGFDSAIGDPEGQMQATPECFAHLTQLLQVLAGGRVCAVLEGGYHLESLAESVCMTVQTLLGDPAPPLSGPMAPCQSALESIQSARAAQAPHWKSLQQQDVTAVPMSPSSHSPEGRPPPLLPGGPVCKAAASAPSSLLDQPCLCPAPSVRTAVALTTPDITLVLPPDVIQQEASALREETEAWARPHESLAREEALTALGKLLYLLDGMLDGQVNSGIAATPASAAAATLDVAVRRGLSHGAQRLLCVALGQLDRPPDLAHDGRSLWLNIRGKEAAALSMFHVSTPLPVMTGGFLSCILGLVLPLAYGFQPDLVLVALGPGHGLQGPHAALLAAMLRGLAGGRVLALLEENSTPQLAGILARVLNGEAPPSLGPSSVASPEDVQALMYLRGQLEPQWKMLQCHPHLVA

For assay [2], the target named is T2, HeLa cell extract proteins (Homo sapiens, UniProt Q8NEW0).
T2 construct: endogenous in cells; host or cells: HeLa cell extract
T2 sequence (Q8NEW0 1-376): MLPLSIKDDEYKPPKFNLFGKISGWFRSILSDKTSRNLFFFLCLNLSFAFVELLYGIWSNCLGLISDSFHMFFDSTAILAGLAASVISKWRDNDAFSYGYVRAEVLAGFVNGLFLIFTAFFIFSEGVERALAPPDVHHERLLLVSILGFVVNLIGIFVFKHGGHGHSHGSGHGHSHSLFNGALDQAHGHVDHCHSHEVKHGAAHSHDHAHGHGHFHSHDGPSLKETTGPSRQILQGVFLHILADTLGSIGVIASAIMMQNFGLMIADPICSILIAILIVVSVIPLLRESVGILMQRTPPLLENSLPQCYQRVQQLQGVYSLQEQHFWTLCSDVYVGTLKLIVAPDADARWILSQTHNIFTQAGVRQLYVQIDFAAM

Assay [3] deals with T3, HeLa cell extract proteins (Homo sapiens, UniProt Q14697).
T3 construct: endogenous in cells; host or cells: HeLa cell extract
T3 sequence (Q14697 29-944): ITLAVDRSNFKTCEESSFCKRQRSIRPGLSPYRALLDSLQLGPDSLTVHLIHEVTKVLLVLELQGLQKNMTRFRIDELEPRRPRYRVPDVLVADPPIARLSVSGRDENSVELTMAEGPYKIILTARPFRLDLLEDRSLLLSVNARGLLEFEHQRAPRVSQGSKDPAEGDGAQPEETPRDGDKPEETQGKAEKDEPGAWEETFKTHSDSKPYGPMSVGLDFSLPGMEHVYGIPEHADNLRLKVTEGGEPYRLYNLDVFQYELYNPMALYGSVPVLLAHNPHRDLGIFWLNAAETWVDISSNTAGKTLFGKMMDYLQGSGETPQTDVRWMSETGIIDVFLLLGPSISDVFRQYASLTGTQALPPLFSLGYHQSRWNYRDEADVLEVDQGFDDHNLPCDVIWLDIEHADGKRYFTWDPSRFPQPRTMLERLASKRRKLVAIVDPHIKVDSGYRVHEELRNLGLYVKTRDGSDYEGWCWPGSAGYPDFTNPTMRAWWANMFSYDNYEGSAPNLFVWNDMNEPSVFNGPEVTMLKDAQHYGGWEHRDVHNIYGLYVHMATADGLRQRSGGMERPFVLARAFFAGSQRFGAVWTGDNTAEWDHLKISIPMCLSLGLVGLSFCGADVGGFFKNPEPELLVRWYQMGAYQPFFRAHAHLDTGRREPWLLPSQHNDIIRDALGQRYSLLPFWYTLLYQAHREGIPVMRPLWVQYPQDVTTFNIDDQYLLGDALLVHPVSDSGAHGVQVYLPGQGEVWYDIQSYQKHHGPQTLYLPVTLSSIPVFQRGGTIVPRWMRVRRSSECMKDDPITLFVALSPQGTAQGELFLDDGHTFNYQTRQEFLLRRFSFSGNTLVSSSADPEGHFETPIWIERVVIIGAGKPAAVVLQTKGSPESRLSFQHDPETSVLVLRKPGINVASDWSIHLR

The target in assay [4] is T4, HeLa cell extract proteins (Homo sapiens, UniProt P30040).
T4 construct: endogenous in cells; host or cells: HeLa cell extract

For assay [5], the target named is T5, HeLa cell extract proteins (Homo sapiens, UniProt Q9NR28).
T5 construct: endogenous in cells; host or cells: HeLa cell extract
T5 sequence (Q9NR28 22-239): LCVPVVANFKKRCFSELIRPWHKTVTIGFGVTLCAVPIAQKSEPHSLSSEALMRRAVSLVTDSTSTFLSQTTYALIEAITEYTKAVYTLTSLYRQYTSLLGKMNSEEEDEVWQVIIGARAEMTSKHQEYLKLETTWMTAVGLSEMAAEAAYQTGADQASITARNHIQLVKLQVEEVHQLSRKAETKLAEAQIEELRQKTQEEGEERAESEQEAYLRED

Assay [6] has as its target T6, HeLa cell extract proteins (Homo sapiens, UniProt Q01105).
T6 construct: endogenous in cells; host or cells: HeLa cell extract

Assay [7] deals with T7, HeLa cell extract proteins (Homo sapiens, UniProt Q96AG4).
T7 construct: endogenous in cells; host or cells: HeLa cell extract
T7 sequence (Q96AG4 1-307): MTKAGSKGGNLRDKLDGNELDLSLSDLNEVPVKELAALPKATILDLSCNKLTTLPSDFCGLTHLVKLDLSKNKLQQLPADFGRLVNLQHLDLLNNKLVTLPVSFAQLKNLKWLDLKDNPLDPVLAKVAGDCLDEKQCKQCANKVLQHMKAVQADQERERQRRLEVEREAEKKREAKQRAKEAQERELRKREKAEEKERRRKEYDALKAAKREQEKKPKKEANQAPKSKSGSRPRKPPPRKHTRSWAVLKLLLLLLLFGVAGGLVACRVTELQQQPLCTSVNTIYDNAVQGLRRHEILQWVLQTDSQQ

Assay [8] addresses T8, HeLa cell extract proteins (Homo sapiens, UniProt P00403).
T8 construct: endogenous in cells; host or cells: HeLa cell extract

Where [9] appears, read: HeLa, protein SET (ISOFORM 1 OF PROTEIN SET.).
The mark [10] stands for this setting: HeLa, protein SLC30A7 (SOLUTE CARRIER FAMILY 30 MEMBER 7).
Setting [11] is: HeLa, protein DIABLO (DIABLO HOMOLOG, MIT[…]).

T8 sequence (P00403 whole entry): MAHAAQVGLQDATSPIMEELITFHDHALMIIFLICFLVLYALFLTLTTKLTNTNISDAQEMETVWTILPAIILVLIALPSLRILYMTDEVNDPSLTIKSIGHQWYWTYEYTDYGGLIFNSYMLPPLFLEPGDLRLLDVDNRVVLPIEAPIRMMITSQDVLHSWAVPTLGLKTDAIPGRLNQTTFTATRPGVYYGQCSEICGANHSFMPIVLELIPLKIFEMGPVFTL
T6 sequence (Q01105 whole entry): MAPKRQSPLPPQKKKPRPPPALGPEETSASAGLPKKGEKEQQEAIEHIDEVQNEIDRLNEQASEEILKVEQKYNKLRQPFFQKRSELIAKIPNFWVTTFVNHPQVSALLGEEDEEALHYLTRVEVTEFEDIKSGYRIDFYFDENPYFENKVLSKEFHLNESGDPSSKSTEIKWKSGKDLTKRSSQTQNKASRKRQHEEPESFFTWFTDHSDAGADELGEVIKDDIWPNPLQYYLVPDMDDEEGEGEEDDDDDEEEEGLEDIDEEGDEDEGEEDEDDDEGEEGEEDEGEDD

For `Nc1nc2cccc(-c3ccccc3)c2n1Cc1ccc(Cl)c(Cl)c1` [compound 3], the “fold changes relative to vehicle control” value stood at 0.9 in assay [1] (captured protein HDAC10, HeLa); 1.07 in assay [2] (HeLa, protein SLC30A7); 0.94 in assay [3] (protein GANAB, HeLa); 0.94 in assay [4] (protein ERP29, HeLa); 1.01 in assay [5] (captured protein DIABLO, HeLa); 0.9 fold in assay [6] (setting [9]). The “fold changes relative to vehicle control” value in assay [7] (protein LRRC59, HeLa) stood at 0.98; in assay [8] (captured protein COX2, HeLa), 1.14.

On to `NCCOCCOCC(=O)Nc1nc2ncc(CNc3ccc(C(=O)NC(CCC(=O)O)C(=O)O)cc3)nc2c(=O)[nH]1` (centres unmarked) [compound 6], for which the “fold changes relative to vehicle control” value in assay [1] (HeLa, protein HDAC10) turned out to be 0.82; in assay [2] (setting [10]) it was 0.94; in assay [3] (HeLa, protein GANAB) it was 1.1; in assay [4] (protein ERP29, HeLa), 1.24; in assay [5] (HeLa, protein DIABLO (DIABLO HOMOLOG, MITOCHONDRIAL PRECURSOR)), 0.99; in assay [6] (HeLa, captured protein SET), 1.16. Moreover, the “fold changes relative to vehicle control” value came to 1.13 in assay [7] (HeLa, protein LRRC59) and 1.33 in assay [8] (protein COX2, HeLa).

With `Nc1nc2[nH]cc(CCc3ccc(C(=O)N[C@@H](CCC(=O)O)C(=O)O)cc3)c2c(=O)[nH]1` [PTX, pemetrexed], the “fold changes relative to vehicle control” value in assay [1] was determined as 0.85; in assay [2], 0.97; in assay [3], 1; in assay [4], 0.96; in assay [5], 1.01; in assay [6], 1.08. Further, the results for the “fold changes relative to vehicle control” value in assay [7] and in assay [8] were 0.83 and 1.24, respectively.

Take `Nc1nc2c(c(=O)[nH]1)N(C=O)C(CNc1ccc(C(=O)N[C@@H](CCC(=O)O)C(=O)O)cc1)CN2` (some centres unmarked) [LEU, leucovorin]: the “fold changes relative to vehicle control” value turned out to be 0.95 in assay [1] (HeLa, protein HDAC10); 1.06 in assay [2] (setting [10]); 0.99 in assay [3] (HeLa, protein GANAB); 0.97 in assay [4] (protein ERP29, HeLa); 1.06 in assay [5] (setting [11]); 0.98 in assay [6] (HeLa, captured protein SET). The “fold changes relative to vehicle control” value in assay [7] (HeLa, protein LRRC59) is 0.83; in assay [8] (protein COX2, HeLa), 1.05.

Regarding `CCCCCCOc1ccc(Cc2cnc(N)nc2N)cc1` [compound 1], the “fold changes relative to vehicle control” value in assay [1] (captured protein HDAC10, HeLa) worked out at 0.82; in assay [2] (HeLa, protein SLC30A7), 1.06; in assay [3] (protein GANAB, HeLa), 1.08; in assay [4] (protein ERP29, HeLa), 1.29; in assay [5] (captured protein DIABLO, HeLa) it was 1.09; in assay [6] (setting [9]), 2.11 fold. The “fold changes relative to vehicle control” value in assay [7] (protein LRRC59, HeLa) is recorded as 1.14; in assay [8] (captured protein COX2, HeLa), 0.99.

As to `NCCCNc1ccc(C(=O)NC(CCC(=O)O)C(=O)O)cc1` (centres unmarked) [compound 7], the “fold changes relative to vehicle control” value in assay [1] (HeLa, protein HDAC10) is listed as 0.95; in assay [2] (setting [10]), 1; in assay [3] (HeLa, protein GANAB), 0.97; in assay [4] (protein ERP29, HeLa), 0.88; in assay [5] (setting [11]), 1.05; in assay [6] (HeLa, captured protein SET), 0.84. In addition, the “fold changes relative to vehicle control” value in assay [7] (HeLa, protein LRRC59) is given as 0.87; in assay [8] (protein COX2, HeLa), 1.27.

`CCCCCCOc1cccc(Cc2cnc(N)nc2N)c1` [compound 2]: the “fold changes relative to vehicle control” value is recorded as 0.88 in assay [1] (captured protein HDAC10, HeLa); 1 in assay [2] (HeLa, protein SLC30A7); 1.28 in assay [3] (protein GANAB, HeLa); 1.77 in assay [4] (protein ERP29, HeLa); 0.97 in assay [5] (captured protein DIABLO, HeLa); 3.28 fold in assay [6] (setting [9]). For the same compound, the “fold changes relative to vehicle control” value in assay [7] (protein LRRC59, HeLa) was found to be 1.54; in assay [8] (captured protein COX2, HeLa), 0.95.
